The record followed here is PubChem BioAssay AID179 (DTP/NCI, 2004).

This assay has as its system CEM cells HIV-1 protection, formazan growth assay. The assay is described as follows: NCI AIDS Antiviral Assay. The conditions noted are these: for IC50: measured here: growth of uninfected CEM cells. An outline of the steps:
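Category rules: moderately active means at least 50% protection on retest, and confirmed active means 100% protection reproducibly. The underlying data came from a formazan growth assay in HIV-1-infected CEM cells.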

Where “and” joins values, the source holds several entries; their conditions need not be identical. Equal entries are not always repeated. Calls of active or inactive are those of the source.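 Rule for the calls: active = compounds giving half or more protection of infected cells from virus-caused growth loss, again on retest; inactive = the rest.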

In general, EC50 refers to the concentration that produces a half-maximal response. The IC50 is the concentration at which inhibition is half-maximal. In the case of `CC(=O)C1C(=O)C(=O)N(c2ccc(Cl)cc2C)C1=O` (stereo not drawn), the EC50 was more than 93.3 µM and the half-maximal inhibitory concentration (IC50) was more than 93.3 µM. Regarding `C[C@@H]1C(N2CCCC2)=CC(=O)OC1c1ccccc1` (stereo partly drawn), the EC50 was more than 200 µM and the IC50 is more than 200 µM.

For the compound `Nc1ncnc2c1ccn2C/C=C/CO`, the EC50 is more than 200 µM and the IC50 was more than 200 µM. On to `Oc1ccc([C@H]2Oc3c(ccc(O)c3O)[C@@H](O)[C@H]2O)cc1O`, for which the EC50 is more than 200 µM and the IC50 came to 29.5 µM. With `COc1ccc(NC(=O)/C(=C/n2c(=S)[nH]c3cc(C)ccc32)C(C)=O)cc1`, the EC50 is more than 200 µM and the IC50 is more than 200 µM.

Turning to `ON=C(C1CC1)C1CC1`, the EC50 is more than 200 µM and the 50% inhibitory concentration (IC50) is more than 200 µM.

Take `NCP1(=O)CNC(=O)NC1`: the EC50 was more than 1510 µM and the IC50 is more than 1510 µM.

Take `Cc1ccc2c(c1C)C(=O)C1(C2)Cc2ccc3c(c2C1=O)CCC3` (stereo not drawn): the EC50 was more than 100 µM and the IC50 was more than 100 µM. On to `C#CCSc1nnnn1-c1ccccc1`, for which the EC50 was more than 200 µM and the IC50 came out at 3.24 µM. Regarding `Cn1c(=O)[nH]n(-c2ccc3ccccc3c2)c1=O`, the EC50 is more than 200 µM and the IC50 was more than 200 µM.

`CC(C)(C)C(=O)/C=C/c1ccccc1F`: the EC50 was more than 49 µM and the IC50 was more than 49 µM. Take `COC(=O)C(=O)C(C(=O)C(=O)Nc1cccc(OC)c1)c1nc2ccc(Cl)cc2[nH]c1=O` (stereo not drawn): the EC50 was more than 204 µM and the half-inhibitory concentration (IC50) is 191 µM. Regarding `Cc1ccc(/C(O)=C/c2nc3ccccc3[nH]c2=O)c(C)c1`, the EC50 was more than 200 µM and the concentration for half-maximal inhibition (IC50) turned out to be 35.5 µM. As to `O=[N+]([O-])c1cccc(S(=O)(=O)N2CCCC2)c1`, the EC50 was more than 200 µM and the IC50 was determined as 166 µM.

`CC(=O)NCc1nc(C#N)c(N)o1`: the EC50 is more than 200 µM and the IC50 was more than 200 µM. Take `COc1ccc(COCCOCc2nc(C#N)c(N)o2)cc1`: the EC50 was more than 200 µM and the IC50 was 135 µM. The matching figures for `Cc1ccc(C2C(Cl)C(=O)N2NC(=O)c2ccc(N)cc2)cc1` (stereo not drawn): more than 200 µM and 13.5 µM.

On to `O=C(CCCN1CCC(O)(c2ccc(Cl)cc2)CC1)c1ccc(F)cc1`, for which the EC50 is more than 132 µM. For `COC(=O)C(=O)C(C(=O)C(=O)Nc1ccccc1C(=O)OC)c1nc2ccc(C(=O)c3ccccc3)cc2[nH]c1=O` (stereo not drawn), the EC50 was more than 89.1 µM and the IC50 stood at 52.5 µM. Taken in the same sequence, the figures for `NC(=O)C(=O)N/N=C1\C(=O)N(c2ccc(Cl)cc2Cl)C(=O)C1C(=O)Nc1ccc(Cl)cc1Cl` (stereo not drawn) were more than 7.08 µM and more than 7.08 µM. The matching figures for `CCCCCCC(CC)(C(=O)O)C(=O)O`: more than 437 µM and more than 437 µM. For the compound `CC(C)CC1=C(C(=O)c2ccoc2)CC(C)C1` (stereo not drawn), the EC50 is more than 200 µM and the half-maximal inhibitory concentration (IC50) was more than 200 µM. `CC(C)(C)c1n[nH]c(C(C)(C)C)c1N=O`: the EC50 is more than 200 µM and the IC50 turned out to be 97.7 µM. The matching figures for `COC(=O)C1=C(C(=O)OC)C2(CCCCCC2=O)OC1=O` (stereo not drawn): more than 851 µM and 45.7 µM.

`COc1ccc(NS(=O)C2CCCCC2)cc1` (stereo not drawn): the EC50 is more than 200 µM and the IC50 was more than 200 µM. As to `COC(=O)C(=O)C(C(=O)C=C(C)C)C(=O)C(=O)Nc1ccc(Cl)cc1C` (stereo not drawn), the outcome was inactive. Regarding `C=C(C)COC(=O)C1CC2OC2CC1C(=O)OCC(=C)C` (stereo not drawn), the EC50 is more than 200 µM and the half-maximal inhibitory concentration (IC50) amounted to 166 µM. On to `O=C1CSC(c2ccc(Cl)cc2)N1N1C(=O)CSC1c1ccc(Cl)cc1` (stereo not drawn), for which the EC50 was more than 151 µM and the 50% inhibitory concentration (IC50) is more than 151 µM.

Regarding `CCOC(=O)c1c(N)sc2c1CCCCC2`, the EC50 is more than 95.5 µM and the IC50 is more than 95.5 µM.

Take `CCO[C@@H]1OC(=O)[C@H]2C(c3ccc(Cl)cc3)=NO[C@@H]12`: the EC50 is more than 35.5 µM and the IC50 is more than 35.5 µM. Take `Cn1c2c(c3ccccc31)CCN1C[C@@H]3CCCC[C@H]3C[C@@H]21`: the EC50 was more than 100 µM and the IC50 was 1.62 µM.

As for `C=C1c2nc3ccccc3n2C=C(c2ccc(OC)cc2)N1c1ccccc1`, the EC50 was more than 200 µM and the IC50 came to 3.8 µM. For the compound `N#Cc1ccc(OCCSCCCCCCCCCCSCCOc2ccc(C#N)cc2)cc1`, the EC50 is more than 2.88 µM and the concentration for half-maximal inhibition (IC50) is more than 2.88 µM. Turning to `Cc1csc(/N=C\c2c(O)c3ccccc3oc2=O)n1`, the EC50 is more than 200 µM and the half-maximal inhibitory concentration (IC50) was found to be 36.3 µM. The matching figures for `Cc1nsc2cc(Cl)n(C)c(=O)c12`: more than 6.76 µM and more than 6.76 µM.

For the compound `N#CC(C#N)=C1NC(=O)C(c2ccccc2)C(=O)N1` (stereo not drawn), the outcome was inactive. In the case of `Cc1cc(C[C@H]2O[C@@H]3OC(C)(C)O[C@@H]3[C@H]3OC(C)(C)O[C@H]32)c2ccccc2n1`, the EC50 is more than 200 µM and the concentration for half-maximal inhibition (IC50) came to 64.6 µM. The matching figures for `O=C(O/C=C\OC1CCCC1(c1ccccc1)c1ccccc1)c1ccccc1` (stereo not drawn): more than 200 µM and 3.8 µM. With `CC(C)(C)NNC(=O)CCn1[nH]c(=O)c(Cl)c(Cl)c1=O`, the EC50 is more than 407 µM and the half-maximal inhibitory concentration (IC50) is more than 407 µM. Consider `NC(N)=NS(=O)(=O)c1ccc(Nc2c3ccccc3nc3c(C(=O)NC(CO)(CO)CO)cccc23)cc1`, for which the EC50 is more than 200 µM and the IC50 was 3.31 µM.

As for `Cc1nc2ccc(S(=O)(=O)NS(=O)(=O)c3ccc(-c4ccccc4)cc3)cc2c(=O)n1NS(=O)(=O)c1ccc(-c2ccccc2)cc1`, the EC50 is more than 200 µM and the IC50 was found to be 170 µM. Regarding `Cc1cc(S(=O)(=O)Nc2nc3ncccc3[nH]2)c(S)cc1Cl`, the concentration giving a half-maximal response (EC50) was 33.1 µM and the IC50 is more than 200 µM.

Turning to `CC(C)(C)C(=O)C(C#N)C(=O)C(C)(C)C`, the EC50 is more than 200 µM and the IC50 is more than 200 µM. For `CCOc1ccc(N2C(=O)/C(=C/c3ccc(N(CCC#N)CCC#N)cc3)N=C2c2cc([N+](=O)[O-])ccc2Cl)cc1`, the EC50 was more than 33.1 µM and the IC50 was 21.4 µM. Taken in the same sequence, the figures for `COc1ccccc1N/N=c1/c2n(-c3ccc(Cl)cc3)c(=S)n(-c3ccccn3)c1=NCCN=2` were more than 200 µM and more than 200 µM. As for `CCOC(=O)NC(=O)c1cn(CCSCCOC(=O)NCCCCCCNC(=O)OCCSCCn2cc(C(=O)NC(=O)OCC)c(=O)n(C)c2=O)c(=O)n(C)c1=O`, the EC50 is more than 8.32 µM and the IC50 is more than 8.32 µM.

With `CCCCCCCCCCCC(=O)CC(=O)c1c(O)cccc1O`, the EC50 was more than 15.5 µM and the half-inhibitory concentration (IC50) is more than 15.5 µM. As to `O=C(O)/C=C/c1ccc(Oc2ccccc2C(=O)O)o1`, the EC50 is more than 49 µM and the concentration for half-maximal inhibition (IC50) was more than 49 µM. On to `Cn1c(=O)sc2cc(C(=S)N3CCN(c4ccccc4)CC3)ccc21`, for which the half-maximal effective concentration (EC50) is 87.1 µM and the half-inhibitory concentration (IC50) was 107 µM. Turning to `OCC1(CO)CCCC(CO)(CO)C1O`, the EC50 was more than 200 µM and the IC50 was more than 200 µM. Turning to `O=C1/C(=C/c2ccccc2)CN(C(=O)Oc2ccc([N+](=O)[O-])cc2)C/C1=C\c1ccccc1`, the result was inactive. For `Oc1cc(O)c2c(c1)OC(c1ccc(O)c(O)c1)C(O)C2c1c(O)cc(O)c2c1OC(c1ccc(O)c(O)c1)C(O)C2` (stereo not drawn), the EC50 was more than 200 µM and the IC50 worked out at 102 µM. `O=S(O)CCCCCSSc1ccc(Cl)cc1`: the result was inactive. Consider `CCCCCCCCCC(=O)NC(Cc1ccc(O)cc1)C(=O)NCCCNCCCCNCCCNC(=O)[C@@H](N)CCCN=C(N)N` (stereo partly drawn), for which the EC50 was more than 69.2 µM and the IC50 was 58.9 µM. Taken in the same sequence, the figures for `CN1C(=O)C(C(C)(C)C2SC(=S)N(C)C2=O)SC1=S` (stereo not drawn) were more than 200 µM and more than 200 µM. In the case of `CC(=O)O[C@H]1[C@@H](OC2CCCC2(c2ccccc2)c2ccccc2)O[N+]([O-])=C[C@@]12COCc1cc3c(cc12)OCO3` (stereo partly drawn), the EC50 is more than 200 µM and the IC50 was 11.7 µM.

As for `Cc1nc2c(sc(=S)n2-c2ccccc2)c(=O)[nH]1`, the EC50 is more than 91.2 µM and the half-maximal inhibitory concentration (IC50) was more than 91.2 µM. For the compound `C[N+](C)(C)CC(=O)N/N=C/c1oc(-c2c(O)ccc3ccccc23)c(-c2c(O)ccc3ccccc23)c1[N+](=O)[O-]`, the EC50 is more than 45.7 µM and the IC50 amounted to 24.5 µM.

Turning to `C1=NCCN=Cc2ccccc2NCCNc2ccccc21`, the EC50 was more than 200 µM and the 50% inhibitory concentration (IC50) was determined as 91.2 µM. Taken in the same sequence, the figures for `Cc1cc(NS(=O)(=O)c2ccc(Nc3c4ccccc4nc4c(C(=O)Nc5ccc(S(=O)(=O)O)cc5)cccc34)cc2)no1` were 123 µM and more than 200 µM. Taken in the same sequence, the figures for `NNC(=O)CC(=O)Nc1ccc(C(=O)O)cc1` were more than 200 µM and more than 200 µM. As for `Nc1nc(OCc2ccccc2)c2[nH]cnc2n1`, the EC50 is more than 200 µM and the concentration for half-maximal inhibition (IC50) came out at 32.4 µM. Consider `CNCCOC(c1ccccc1)c1ccccc1C` (stereo not drawn), for which the EC50 was more than 200 µM; the IC50 was 93.3 µM and 25.1 µM. In the case of `CCOC(=O)c1c(N2CCCC2)ncn(Cc2ccccc2)c1=S`, the EC50 is more than 200 µM and the IC50 was more than 200 µM. As for `COc1ccc([C@@]23Oc4cc(OC)cc(OC)c4[C@]2(O)[C@H](O)[C@H](C(=O)N(C)C)[C@H]3c2ccccc2)cc1`, the EC50 is more than 200 µM and the IC50 was 0.0631 µM.

As for `O=c1c(-c2ccc(O)cc2)coc2c(O)c(O)ccc12`, the EC50 was more than 200 µM and the concentration for half-maximal inhibition (IC50) turned out to be 28.8 µM. Taken in the same sequence, the figures for `COc1cc(C)c(/C=C/C(=O)N2C(=O)OC[C@@H]2c2ccccc2)c(C)c1` were more than 200 µM and 26.9 µM. Regarding `Cc1c(C)c(C)c(-n2c(=O)n(C)c(=O)n2-n2c(=O)n(C)c(=O)n2-c2c(C)c(C)c(C)c(C)c2C)c(C)c1C`, the EC50 was more than 100 µM and the IC50 was 6.31 µM. As for `Cc1ccc(S(=O)(=O)N2CCN3CCN(CCN(C)CCN4CCN(CC4)CCN(S(=O)(=O)c4ccc(C)cc4)CCN(S(=O)(=O)c4ccc(C)cc4)CCN(S(=O)(=O)c4ccc(C)cc4)CCN(S(=O)(=O)c4ccc(C)cc4)CCN4CCN(CCN(C)CCN5CCN(CC5)CCN(S(=O)(=O)c5ccc(C)cc5)CCN(S(=O)(=O)c5ccc(C)cc5)CCN(S(=O)(=O)c5ccc(C)cc5)CC2)CC4)CC3)cc1`, the EC50 was more than 5.01 µM and the half-inhibitory concentration (IC50) is 0.724 µM.
